By IC50 is commonly meant the midpoint of a concentration-inhibition curve.

SMILES strings stand for the structures.

Our source for the IC50 values is patent US11912723B2, “KRAS modulators and uses thereof” (Quanta Therapeutics, Inc., priority 2022, dated 2024).

The target in assay [1] is T1, GST-tagged KRAS G12D (2-169) (Homo sapiens, UniProt P01116, G12D).
T1 construct: GST-tagged KRAS^G12D (2-169, Reaction Biology, MSC-11-539); purchased Reaction Biology MSC-11-539 (KRAS G12D); MSC-11-502 (SOS1cat)
As to the kind of experiment: Nucleotide exchange assay (NEA), HTRF of SOS-mediated GTP-DY-647P1 binding. Type of assay: biochemical. Particulars: 5 nM GST-KRAS G12D, 20 nM SOScat, 150 nM GTP; compound 1 h at RT. An excerpt:
This activity is tightly regulated by GTPase activating proteins (GAPs) and guanine nucleotide exchange factors (GEFs). GEFs, such as SOS1/2, activate Ras proteins by exchanging GDP for GTP, thus returning Ras to its active conformation (Simanshu, Nissley, & McCormick, 2017). […] Homogenous time resolved fluorescence (HTRF) was used to detect SOS-mediated binding of a fluorescent GTP analog, GTP-DY-647P1 (Jena Biosciences NU-820-647P1) to GST-tagged KRAS^G12D (2-169, Reaction Biology, MSC-11-539).
GST-tagged KRAS^G12D (2-169) and anti-GST MAb Tb Cryptate Gold (CisBio 61GSTTLB) were diluted into assay buffer (20 mM HEPES, pH 7.3, 150 mM NaCl, 5 mM MgCl2, 0.05% BSA 0.0025% NP40, 1 mM DTT) to prepare a 2.5× donor solution. 5× compound was added to the protein mixture and incubated for 1 h at RT. 2.5× acceptor solution containing SOS1cat (564-1049, Reaction Biology MSC-11-502) and GTP-DY-647P1 were then added to the donor KRAS mixture such that the final concentration of the reaction contained 5 nM GST-tagged KRAS^G12D (2-169), 20 nM SOScat, and 150 nM GTP. The reaction was monitored using at RT with the Envision multimode plate reader (Ex/Em 337/665, […]) up to 90 minutes at 5 minute intervals. Data was blanked to reactions without SOS1 and % inhibition was calculated such that DMSO only=0% and blank=100%. Curve fitting was done using a 4 parameter fit. NEA KRAS G12D ID50 (uM) values of selected compounds are depicted in Table 2 with compounds having a value<0.01 uM as ++++; >0.01 uM to 0.1 uM as +++; >0.1 uM to 1 uM as ++; >1 uM to 20 uM as +; and >20 uM as NA.

Another assay deals with T2, KRAS G12D/RAF1 (Homo sapiens, UniProt P01116, G12D).
T2 construct: KRAS (1-169) proteins were expressed in E. coli at 18° C; His6-MBP (N, cleaved yes); made in house; host or cells: E. coli
Nature of the assay: Protein-protein interaction (PPI) HTRF assay KRAS G12D/RAF1. In kind it is binding. Particulars: KRAS G12D/RAF1, GppNHp-loaded KRAS; 30 minutes pre-incubation. The method, then:
Biotinylated KRAS wt and KRAS G12DNV proteins were expressed and purified in conditions similar to those previously reported (Tran, et al., 2021) (Zhang, et al., 2020). Briefly, KRAS (1-169) proteins were expressed in E. coli at 18° C. with an upstream TEV cleavage site (ENLFYQS) followed an Avi tag sequence ([…]). KIRAS expression constructs contained both a His6 and maltose-binding protein (MBP) tags at the N-terminus for Ni-NTA column purification prior to overnight TEV cleavage and MBP column purification. The avi-tagged NRAS expression construct contained both a His6 tag and SUMO cleavage sige at the N-terminus for Ni-NTA column purification followed by His-ULP1 digestion overnight. All avi-tagged RAS proteins were dialyzed into buffer containing ATP, biotin, and BirA followed by purification over a second Ni-NTA column and then run over a size exclusion HiLoad™ 26/600 Superdex™ column in 20 mM HEPES, pH 7.5, 300 mM NaCl, 5 mM MgCl2, and 1 mM TCEP. Fractions containing the protein of interest were pooled, concentrated, and confirmed by intact mass spectrometry. To prepare ‘GTP’ loaded KRAS and NRAS, biotinylated KRAS or NRAS was nucleotide exchanged from GDP-bound protein to GppNHp-bound (Jena Biosciences, NU-401-50) protein in the presence of alkaline phosphatase and excess GppNHp as previously described and the resulting nucleotide content was confirmed by HPLC reverse phase analytical chromatography (Donohue, et al., 2019) (Tran, et al., 2021).
His-tagged RAF1 (52-131) was similarly expressed in E. coli at 18° C. overnight with an upstream TEV cleavage site. His-tagged RAF1 expression construct contained both a His6 and MBP tags at the N-terminus for Ni-NTA column purification followed by MBP-tagged TEV digestion overnight. RAF1 protein samples were further purified over a MBP column followed by a Ni-NTA column and a second MBP column. The fractions containing the protein of interest were pooled, concentrated, and further purified over a HiLoad™ 16/600 Superdex™ 75 pg size exclusion column into 20 mM HEPES, pH8.0, 200 mM NaCl, 5 mM TCEP.
When RAS proteins are in the active GTP-bound conformation, they bind the effector protein RAF1 at the N-terminus Ras-binding domain (RBD, residues 52-131) (Tran, et al., 2021). Homogenous time resolved fluorescence (HTRF) was used to monitor the interaction between wt or mutant KRAS and RAF1 or wt NRAS and RAFT. Compounds were assayed in the presence of KRAS G12D/V and RAF1 versus wt KRAS to assess activity against mutant and w.t. KRAS. Similarly, compounds were then assayed in the presence of w.t. NRAS and RAF1 to assess RAS isoform selectivity. In all assay formats, His-tagged RAF1 protein was incubated with the HTRF donor, anti-6His Tb Cryptate gold (Cisbio 61DB10RDF), and biotinylated RAS proteins were incubated with the HTRF acceptor, streptavidin-d2 (CisBio 610SADLA). The intensity of the fluorescence signal emitted is proportional to binding between the two proteins. The donor solution was prepared by mixing 16 nM His-tagged RAF1 in protein dilution buffer with 1:100 anti-6His Tb cryptate in PPI-Terbium detection buffer. 16 nM biotinylated RAS protein was diluted into protein dilution buffer (50 mM Tris-HCl pH 7.5, 150 mM NaCl, 0.1 mM MgCl2, 1 mM TCEP, 0.005% Tween20) and mixed with 1:2000 Streptavidin-d2 diluted in PPI-Terbium detection buffer (CisBio 61DB10RDF). 50× compound in DMSO was mixed with 16 nM KRAS-acceptor solution and incubated for 30 minutes at room temperature. After compound pre-incubation with KRAS, the RAF1 donor solution was added to the KRAS-acceptor solution and incubated for 1 hour at room temperature. The fluorescence signal emitted was monitored at 665 nm and 615 nm using an Envision multimode plate reader. The HTRF ratio (665/615) was calculated and normalized to 0% inhibition in the absence of compound and 100% inhibition in the presence of untagged RAF1 protein. […]
A general note: Time-resolved FRET reads energy transfer from a long-lived donor to a nearby acceptor.

T2 sequence (P01116 1-169 isoform P01116-2 G12D): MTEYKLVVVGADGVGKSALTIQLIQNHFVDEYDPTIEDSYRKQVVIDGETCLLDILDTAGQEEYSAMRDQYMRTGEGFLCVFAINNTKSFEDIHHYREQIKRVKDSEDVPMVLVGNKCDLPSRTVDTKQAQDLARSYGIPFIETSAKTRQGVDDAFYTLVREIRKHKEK
T1 sequence (P01116 2-169 isoform P01116-2 G12D): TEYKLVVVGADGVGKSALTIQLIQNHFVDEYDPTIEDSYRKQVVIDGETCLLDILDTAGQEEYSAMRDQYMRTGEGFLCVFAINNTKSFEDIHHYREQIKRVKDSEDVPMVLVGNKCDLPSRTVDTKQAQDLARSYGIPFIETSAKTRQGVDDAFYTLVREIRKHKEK

As to `N#CCC1CCCN(c2nc(OC[C@@]34CCCN3C[C@H](F)C4)nc3c2COC2(CCc4c(Cl)cccc42)C3)CC1` (stereo partly drawn) [Compound 19, 2-(1-(4-chloro-2′-(((2R,7aS)-2-fluorotetrahydro-1H-pyrrolizin-7a(5H)-yl)methoxy)-2,3,5′,8′-tetrahydrospiro[indene-1,7′-pyrano[4,3-d]pyrimidin]-4′-yl)azepan-4-yl)acetonitrile], the values for the IC50 (in assay [1]; against KRAS G12D/RAF1) were 1 to 20 µM and > 100 µM, respectively.

Take `CN(C)C(=O)c1nn2c(c1Cl)CN(c1nc(OC[C@@]34CCCN3C[C@H](F)C4)nc3c1CN(C)[C@]1(CCCc4ccccc41)C3)CCC2` (single isomer, unassigned) [Compound 64B]: the IC50 in assay [1] was 0.1 to 1 µM; at KRAS G12D/RAF1 it was > 100 µM.

Take `F[C@H]1CN2CCC[C@@]2(COc2nc3c(c(N4CCCCCC4)n2)COC2(COCc4ccccc42)C3)C1` (stereo partly drawn) [Compound 25, 4-(azepan-1-yl)-2-[[(2R,8S)-2-fluoro-1,2,3,5,6,7-hexahydropyrrolizin-8-yl]methoxy]spiro[5,8-dihydropyrano[4,3-d]pyrimidine-7,4′-isochromane]]: the IC50 in assay [1] was 1 to 20 µM; on KRAS G12D/RAF1 it was > 100 µM.

`CN(C)C(=O)c1cc2n(n1)CCCN(c1nc(OC[C@@]34CCCN3C[C@H](F)C4)nc3c1COC1(CCCc4ccc(O)c(Cl)c41)C3)C2` (stereo partly drawn) [Compound 40, 5-[8′-chloro-7′-hydroxy-2-[[(2R,8S)-2-fluoro-1,2,3,5,6,7-hexahydropyrrolizin-8-yl]methoxy]spiro[5,8-dihydropyrano[4,3-d]pyrimidine-7,1′-tetralin]-4-yl]-N,N-dimethyl-4,6,7,8-tetrahydropyrazolo[1,5-a][1,4]diazepine-2-carboxamide]: the values for the IC50 (in assay [1]; against KRAS G12D/RAF1) were 0.01 to 0.1 µM and > 100 µM, respectively.

Turning to `CN(C)C(=O)c1cc2n(n1)CCCN(c1nc(OC[C@@]34CCCN3C[C@H](F)C4)nc3c1CO[C@]1(CCc4c(Cl)cccc41)C3)C2` [Compound 27A, 5-[(7S)-4′-chloro-2-[[(2R,8S)-2-fluoro-1,2,3,5,6,7-hexahydropyrrolizin-8-yl]methoxy]spiro[5,8-dihydropyrano[4,3-d]pyrimidine-7,1′-indane]-4-yl]-N,N-dimethyl-4,6,7,8-tetrahydropyrazolo[1,5-a][1,4]diazepine-2-carboxamide], the values for the IC50 (in assay [1]; at KRAS G12D/RAF1) were 0.1 to 1 µM and > 100 µM, respectively.

For `CN(C)C(=O)c1nn2c(c1C#N)CN(c1nc(OC[C@@]34CCCN3C[C@H](F)C4)nc3c1CN(C)[C@@]1(CCCc4ccccc41)C3)CCC2` [Compound 77, 3-cyano-5-[(7S)-2-[[(2R,8S)-2-fluoro-1,2,3,5,6,7-hexahydropyrrolizin-8-yl]methoxy]-6-methyl-spiro[5,8-dihydropyrido[4,3-d]pyrimidine-7,1′-tetralin]-4-yl]-N,N-dimethyl-4,6,7,8-tetrahydropyrazolo[1,5-a][1,4]diazepine-2-carboxamide], the results for the IC50 (in assay [1]; on KRAS G12D/RAF1) were < 0.01 µM and 10 to 100 µM, respectively.

Take `O=C(c1cc2n(n1)CCCN(c1nc(OC[C@@]34CCCN3C[C@H](F)C4)nc3c1CO[C@@]1(CCc4c(Cl)cccc41)C3)C2)N1CCOCC1` [Compound 38, morpholino-[5-[(7S)-4′-chloro-2-[[(2R,8S)-2-fluoro-1,2,3,5,6,7-hexahydropyrrolizin-8-yl]methoxy]spiro[5,8-dihydropyrano[4,3-d]pyrimidine-7,1′-indane]-4-yl]-4,6,7,8-tetrahydropyrazolo[1,5-a][1,4]diazepin-2-yl]methanone; 2,2,2-trifluoroacetic acid]: the IC50 was < 0.01 µM in assay [1] and 10 to 100 µM against KRAS G12D/RAF1.

In the case of `CN1Cc2c(nc(OCC34CCCN3CC(F)C4)nc2N2CC3CCC(C2)C3NC#N)CC12CCCc1ccccc12` [Compound 86, [(1R,5S)-3-[(7S)-2-[[(2R,8S)-2-fluoro-1,2,3,5,6,7-hexahydropyrrolizin-8-yl]methoxy]-6-methyl-spiro[5,8-dihydropyrido[4,3-d]pyrimidine-7,1′-tetralin]-4-yl]-3-azabicyclo[3.2.1]octan-8-yl]cyanamide], the results for the IC50 (in assay [1]; on KRAS G12D/RAF1) were < 0.01 µM and > 100 µM, respectively.

As to `CNCc1nn2c(c1Cl)CN(c1nc(OC[C@@]34CCCN3C[C@H](F)C4)nc3c1CO[C@@]1(CCc4c(Cl)cccc41)C3)CCC2` [Compound 59, 1-[3-chloro-5-[(7S)-4′-chloro-2-[[(2R,8S)-2-fluoro-1,2,3,5,6,7-hexahydropyrrolizin-8-yl]methoxy]spiro[5,8-dihydropyrano[4,3-d]pyrimidine-7,1′-indane]-4-yl]-4,6,7,8-tetrahydropyrazolo[1,5-a][1,4]diazepin-2-yl]-N-methyl-methanamine], the IC50 was 0.01 to 0.1 µM in assay [1] and > 100 µM against KRAS G12D/RAF1.

Consider `CN(O)C(=O)c1cc2n(n1)CCCN(c1nc(OC[C@@]34CCCN3C[C@H](F)C4)nc3c1CO[C@@]1(CCc4c(Cl)cccc41)C3)C2` [Compound 37, 5-[(7S)-4′-chloro-2-[[(2R,8S)-2-fluoro-1,2,3,5,6,7-hexahydropyrrolizin-8-yl]methoxy]spiro[5,8-dihydropyrano[4,3-d]pyrimidine-7,1′-indane]-4-yl]-N-hydroxy-N-methyl-4,6,7,8-tetrahydropyrazolo[1,5-a][1,4]diazepine-2-carboxamide], for which the IC50 is < 0.01 µM in assay [1] and > 100 µM on KRAS G12D/RAF1.
